Assays:
[1] = test system: MDA-MB-468; assay: Growth inhibition of human MDA-MB-468 cells after 5 days by SRB assay; assay type: functional
[2] = test system: MCF7; assay: Growth inhibition of human MCF7 cells after 5 days by SRB assay; assay type: functional
[3] = test system: HCC1954; assay: Growth inhibition of human HCC1954 cells after 5 days by SRB assay; assay type: functional
[4] = test system: MDA-MB-231; assay: Growth inhibition of human MDA-MB-231 cells after 5 days by SRB assay; assay type: functional
[5] = Growth inhibition of human HMEC cells after 5 days by SRB assay; assay type: cell-based; details: HMEC cells
[6] = biological target: T1, Cytochrome P450 1A2 (Homo sapiens, UniProt P05177); assay: Inhibition of CYP1A2 (unknown origin) by fluorescence assay; assay type: ADME
T1 sequence (P05177 whole entry): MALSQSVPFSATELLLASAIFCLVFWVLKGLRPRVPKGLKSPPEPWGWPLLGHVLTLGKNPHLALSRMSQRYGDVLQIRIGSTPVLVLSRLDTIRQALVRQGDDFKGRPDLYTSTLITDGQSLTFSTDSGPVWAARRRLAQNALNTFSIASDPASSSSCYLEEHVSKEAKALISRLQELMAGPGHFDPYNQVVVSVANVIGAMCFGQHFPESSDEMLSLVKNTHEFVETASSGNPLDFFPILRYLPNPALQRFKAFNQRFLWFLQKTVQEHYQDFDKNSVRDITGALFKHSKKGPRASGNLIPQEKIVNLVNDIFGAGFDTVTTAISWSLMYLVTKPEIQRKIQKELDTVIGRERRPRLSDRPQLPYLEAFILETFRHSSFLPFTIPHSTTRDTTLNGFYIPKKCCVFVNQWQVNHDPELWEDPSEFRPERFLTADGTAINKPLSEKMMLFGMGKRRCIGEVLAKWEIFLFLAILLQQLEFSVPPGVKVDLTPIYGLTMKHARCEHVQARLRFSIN

[7] = biological target: Cytochrome P450 2D6 (Homo sapiens, UniProt P10635); assay: Inhibition of CYP2D6 (unknown origin) by fluorescence assay; assay type: ADME
[8] = biological target: Cytochrome P450 2C9 (Homo sapiens, UniProt P11712); assay: Inhibition of CYP2C9 (unknown origin) by fluorescence assay
[9] = biological target: Cytochrome P450 2C19 (Homo sapiens, UniProt P33261); assay: Inhibition of CYP2C19 (unknown origin) by fluorescence assay
[10] = biological target: T2, Cytochrome P450 3A4 (Homo sapiens, UniProt P08684); assay: Inhibition of CYP3A4 (unknown origin) using DBF as substrate by fluorescence assay
[11] = biological target: T2, Cytochrome P450 3A4; assay: Inhibition of CYP3A4 (unknown origin) using BFC as substrate by fluorescence assay
[12] = Half life in mouse liver microsomes
[13] = Half life in human liver microsomes
[14] = Cmax in athymic CD1 nude mouse at 25 mg/kg, po by LC/MS/MS analysis; assay type: ADME, organism-based; design: dose 25 mg/kg, route oral; details: in vivo
[15] = AUC in athymic CD1 nude mouse at 25 mg/kg, po by LC/MS/MS analysis; assay type: ADME, organism-based; design: dose 25 mg/kg, route oral; details: plasma
[16] = biological target: T3, Serine/threonine-protein kinase PLK4 (Homo sapiens, UniProt O00444); assay: Inhibition of PLK4 (unknown origin) by ELISA
T3 sequence (O00444 whole entry): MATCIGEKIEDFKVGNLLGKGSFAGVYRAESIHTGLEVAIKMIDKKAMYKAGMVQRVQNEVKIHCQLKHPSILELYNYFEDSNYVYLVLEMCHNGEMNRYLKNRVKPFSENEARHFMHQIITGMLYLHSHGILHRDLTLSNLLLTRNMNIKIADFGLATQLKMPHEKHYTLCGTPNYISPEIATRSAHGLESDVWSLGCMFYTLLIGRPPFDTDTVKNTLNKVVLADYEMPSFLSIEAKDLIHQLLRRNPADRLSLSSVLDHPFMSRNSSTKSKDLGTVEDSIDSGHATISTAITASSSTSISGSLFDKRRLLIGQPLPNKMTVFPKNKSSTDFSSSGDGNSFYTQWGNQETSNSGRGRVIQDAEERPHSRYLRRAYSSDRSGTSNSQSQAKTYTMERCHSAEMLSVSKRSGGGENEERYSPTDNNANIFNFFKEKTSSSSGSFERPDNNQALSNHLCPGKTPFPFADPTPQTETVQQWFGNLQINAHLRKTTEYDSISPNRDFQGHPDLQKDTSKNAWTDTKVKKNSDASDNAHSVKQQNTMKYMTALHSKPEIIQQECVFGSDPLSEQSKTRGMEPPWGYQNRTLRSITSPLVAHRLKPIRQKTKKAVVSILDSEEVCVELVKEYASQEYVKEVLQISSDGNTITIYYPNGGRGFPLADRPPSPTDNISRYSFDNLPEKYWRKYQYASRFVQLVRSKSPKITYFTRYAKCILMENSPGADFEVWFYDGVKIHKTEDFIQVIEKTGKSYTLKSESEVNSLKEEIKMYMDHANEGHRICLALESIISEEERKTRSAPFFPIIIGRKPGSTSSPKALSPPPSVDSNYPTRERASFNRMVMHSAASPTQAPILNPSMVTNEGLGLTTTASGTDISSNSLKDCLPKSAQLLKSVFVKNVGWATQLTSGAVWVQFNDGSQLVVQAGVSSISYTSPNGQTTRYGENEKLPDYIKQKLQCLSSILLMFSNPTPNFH

[17] = Homo sapiens, MDA-MB-468, 120 h
[18] = Homo sapiens, MDA-MB-231, 120 h

Cytochrome P450 2D6, sequence (P10635 whole entry): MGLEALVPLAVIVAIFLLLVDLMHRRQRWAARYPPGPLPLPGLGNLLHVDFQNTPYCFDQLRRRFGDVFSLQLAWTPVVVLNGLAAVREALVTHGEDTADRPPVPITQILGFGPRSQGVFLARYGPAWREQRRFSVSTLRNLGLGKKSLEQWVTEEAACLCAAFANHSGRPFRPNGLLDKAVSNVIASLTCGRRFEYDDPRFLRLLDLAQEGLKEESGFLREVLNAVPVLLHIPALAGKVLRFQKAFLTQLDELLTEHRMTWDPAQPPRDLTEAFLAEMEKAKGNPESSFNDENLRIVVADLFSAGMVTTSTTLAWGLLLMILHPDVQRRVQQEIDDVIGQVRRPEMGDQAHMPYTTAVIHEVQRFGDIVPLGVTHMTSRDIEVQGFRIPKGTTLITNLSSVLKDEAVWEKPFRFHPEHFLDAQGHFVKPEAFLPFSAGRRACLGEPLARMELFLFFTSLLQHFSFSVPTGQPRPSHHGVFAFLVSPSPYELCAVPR
Cytochrome P450 2C9, sequence (P11712 whole entry): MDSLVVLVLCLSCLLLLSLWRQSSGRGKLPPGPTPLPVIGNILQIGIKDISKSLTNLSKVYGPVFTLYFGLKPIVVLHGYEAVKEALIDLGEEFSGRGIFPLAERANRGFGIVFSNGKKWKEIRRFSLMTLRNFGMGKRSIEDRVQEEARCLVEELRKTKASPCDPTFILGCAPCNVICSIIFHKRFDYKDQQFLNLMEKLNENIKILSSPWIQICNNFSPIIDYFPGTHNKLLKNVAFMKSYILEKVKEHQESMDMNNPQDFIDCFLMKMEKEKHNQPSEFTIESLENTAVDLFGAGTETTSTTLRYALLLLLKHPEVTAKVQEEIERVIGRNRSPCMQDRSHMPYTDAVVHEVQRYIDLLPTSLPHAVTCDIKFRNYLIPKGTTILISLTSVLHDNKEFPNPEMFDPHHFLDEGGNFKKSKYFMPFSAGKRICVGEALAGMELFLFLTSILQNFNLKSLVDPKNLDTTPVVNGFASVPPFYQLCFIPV
Cytochrome P450 2C19, sequence (P33261 whole entry): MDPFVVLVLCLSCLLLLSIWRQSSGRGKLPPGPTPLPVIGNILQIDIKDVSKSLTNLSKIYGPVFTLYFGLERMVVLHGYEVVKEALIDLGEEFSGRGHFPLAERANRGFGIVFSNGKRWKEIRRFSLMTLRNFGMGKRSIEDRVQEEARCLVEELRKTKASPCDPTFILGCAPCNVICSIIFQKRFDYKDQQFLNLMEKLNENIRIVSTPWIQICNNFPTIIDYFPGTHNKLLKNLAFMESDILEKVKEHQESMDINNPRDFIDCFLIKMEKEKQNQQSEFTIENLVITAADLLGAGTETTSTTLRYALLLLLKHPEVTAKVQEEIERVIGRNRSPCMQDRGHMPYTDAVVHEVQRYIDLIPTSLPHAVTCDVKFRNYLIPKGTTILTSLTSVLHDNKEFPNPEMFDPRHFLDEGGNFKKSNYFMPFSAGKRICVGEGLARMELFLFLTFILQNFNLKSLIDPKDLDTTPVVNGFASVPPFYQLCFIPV
T2 sequence (P08684 whole entry): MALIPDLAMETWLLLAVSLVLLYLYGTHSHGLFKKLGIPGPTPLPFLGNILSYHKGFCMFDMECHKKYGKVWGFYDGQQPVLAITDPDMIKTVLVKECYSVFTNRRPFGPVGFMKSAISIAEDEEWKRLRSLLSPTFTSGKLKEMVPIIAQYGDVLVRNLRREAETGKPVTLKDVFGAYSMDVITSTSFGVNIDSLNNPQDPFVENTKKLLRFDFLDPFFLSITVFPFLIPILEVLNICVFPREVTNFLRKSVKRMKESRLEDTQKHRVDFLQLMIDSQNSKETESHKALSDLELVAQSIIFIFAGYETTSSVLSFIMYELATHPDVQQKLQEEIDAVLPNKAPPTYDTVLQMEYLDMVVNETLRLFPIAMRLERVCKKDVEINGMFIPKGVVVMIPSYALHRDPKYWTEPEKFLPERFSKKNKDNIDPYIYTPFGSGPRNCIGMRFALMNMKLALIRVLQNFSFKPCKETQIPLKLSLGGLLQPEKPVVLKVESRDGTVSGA

SMILES	GI50 [1, 17] [nM]	GI50 ([2]; Homo sapiens, MCF7, 120 h) [nM]	GI50 ([3]; Homo sapiens, HCC1954, 120 h) [nM]	GI50 [4, 18] [nM]	GI50 at 120 h [5] [nM]	inhibition (INH) [6]	inhibition (INH) [7]	IC50 [8] [nM]	IC50 [9] [nM]	Cmax [14] [ng/mL]	AUC [15] [ng·h/mL]	also measured
COc1ccc2c(c1)[C@]1(C[C@H]1c1ccc3c(/C=C/c4ccc(N5CCN(C)CC5)nc4)n[nH]c3c1)C(=O)N2	< 1	< 1	2	2600	47000	Not Active	Not Active	2000	1500	200	380	IC50 [10]: 5600 nM; IC50 [11]: 10000 nM; half-life ([12]; liver microsomes): 6 min; half-life ([13]; liver microsomes): 11 min
O=C1Nc2ccccc2[C@]12C[C@H]2c1ccc2c(/C=C/c3cccnc3)n[nH]c2c1	60	2000	7500	1000	4400							
COc1ccc2c(c1)[C@]1(C[C@H]1c1ccc3c(/C=C/c4ccc(CN(C)C)cc4)n[nH]c3c1)C(=O)N2	< 1	0.1	5000	2800	41000	Not Active	Not Active	3500	2000	300	640	IC50 [10]: 7500 nM; half-life ([12]; liver microsomes): 22 min; half-life ([13]; liver microsomes): 36 min
O=C1Nc2ccccc2[C@]12C[C@H]2c1ccc2c(/C=C/c3ccc(CN4CCCC4)cc3)n[nH]c2c1	< 1	370	26	250	3600							
O=C1Nc2ccccc2[C@]12C[C@H]2c1ccc2c(/C=C/c3ccc(CN4CCCCC4)cc3)n[nH]c2c1	< 1	< 1	5000	2200	20000							
CN(C)Cc1ccc(/C=C/c2n[nH]c3cc([C@@H]4C[C@@]45C(=O)N(C)c4ccccc45)ccc23)cc1	2	1.5	7	750	8000	Not Active	Not Active	2600	1900	510	1100	IC50 [10]: > 1000 nM; IC50 [11]: 2300 nM; half-life ([12]; microsomes): 12 min; half-life ([13]; microsomes): 44 min
O=C1Nc2ccccc2[C@]12C[C@H]2c1ccc2c(/C=C/c3ccc(CN4CC[C@@H](F)C4)cc3)n[nH]c2c1	6.7	34000	22	5600	7900	Not Active	Not Active	900	1500	790	1800	half-life ([12]; liver microsomes): 17 min; half-life ([13]; liver microsomes): 52 min
COc1ccc2c(c1)[C@]1(C[C@H]1c1ccc3c(/C=C/c4ccc(CN5CCCCC5)cc4)n[nH]c3c1)C(=O)N2	< 1	< 1	5000	1600	50000	Not Active	Not Active	3400	1400	510	1300	IC50 [10]: 5400 nM; IC50 [11]: > 1000 nM; half-life ([12]; liver microsomes): 40 min; half-life ([13]; liver microsomes): 49 min
O=C1Nc2ccccc2[C@]12C[C@H]2c1ccc2c(/C=C/c3cccc(CN4CCOCC4)c3)n[nH]c2c1	130	350	1600	2200	50000							
C[C@@H]1CN(Cc2cccc(/C=C/c3n[nH]c4cc([C@@H]5C[C@@]56C(=O)Nc5ccccc56)ccc34)c2)C[C@H](C)O1	1100	1300	84	9600								IC50 [16]: 20 nM
O=C1Nc2ccccc2[C@]12C[C@H]2c1ccc2c(/C=C/c3ccc(CN4CC5CCC(C4)O5)cc3)n[nH]c2c1	61	170	53	4100								IC50 [16]: 5.2 nM
O=C1Nc2ccccc2[C@]12C[C@H]2c1ccc2c(/C=C/c3ccc(CN4CCCOCC4)cc3)n[nH]c2c1	2	1000	1800	3000								
C[C@@H]1CN(Cc2ccc(/C=C/c3n[nH]c4cc([C@@H]5C[C@@]56C(=O)Nc5ccccc56)ccc34)cc2)C[C@H](C)N1C	10	2500	1300	500								IC50 [16]: 0.64 nM
CN1CCC(Oc2ccc(/C=C/c3n[nH]c4cc([C@@H]5C[C@@]56C(=O)Nc5ccccc56)ccc34)cc2)CC1	2	2400	770	920								
CN(C)Cc1ccc(/C=C/c2n[nH]c3cc([C@@H]4C[C@@]45C(=O)Nc4ccccc45)ccc23)cc1 (racemic)			1900		28000							GI50 [4]: 12000 nM
COc1ccc2c(c1)[C@]1(C[C@H]1c1ccc3c(/C=C/c4ccc(CN5CCOCC5)cc4)n[nH]c3c1)C(=O)N2 (racemic)												GI50 [1]: 6 nM; GI50 [2]: 10 nM; GI50 [3]: 7300 nM; GI50 [4]: 14000 nM
